The values below come from patent US20190031665A1, “DERIVATIVES OF PYRROLOIMIDAZOLE OR ANALOGUES THEREOF WHICH ARE USEFUL FOR THE TREATMENT OF INTER ALIA CANCER” (EMCURE PHARMACEUTICALS LIMITED, priority 2016, published 2019).

Bounds are passed on as bounds.

Assay [1] has as its target T1, human indoleamine 2,3-dioxygenase 1 (hIDO1) (Homo sapiens, UniProt P14902).
T1 construct: His tag (N); purchased BPS Bioscience, San Diego, Calif., USA; host or cells: E. coli
Nature of the assay: In-vitro human indoleamine 2,3-dioxygenase 1 (IDO1) enzyme assay. The assay is classed as biochemical. The following applies: for IC50: hIDO1 enzyme; for inhibition at 1 µM: hIDO1 enzyme at 1.0 μM concentration; for inhibition at 10 µM: hIDO1 enzyme at 10.0 μM concentration. The procedure, abridged:
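His-tagged hIDO1 (E. coli, 50 ng) incubated with 80 μM tryptophan, 10 mM ascorbate, 10 μM methylene blue, catalase and 0.01% Tween-20 in 50 mM sodium phosphate pH 6.5, 60 min, 37 °C. Piperidine converts N-formylkynurenine to fluorescent NFK-PIP (ex 400/em 500 nm); IC50 by nonlinear regression.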

Assay [2] has as its target T2, human tryptophan 2,3-dioxygenase (hTDO) (Homo sapiens, UniProt P48775).
T2 construct: His tag (N); purchased BPS Bioscience, San Diego, Calif., USA; host or cells: E. coli
Nature of the assay: In-vitro human tryptophan 2,3-dioxygenase (TDO) enzyme assay. It is filed as biochemical. The conditions noted are these: hTDO enzyme at 1.0 μM concentration. In outline: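 N-His-tagged hTDO expressed in E. coli (125 ng) incubated with 200 μM L-tryptophan, 100 mM sodium phosphate pH 7.0, 0.01% Tween-20, 100 μM ascorbate, 60 min at 37 °C. Product converted with 200 mM piperidine (65 °C, 20 min) to NFK-PIP, fluorescence 400/500 nm; IC50 by nonlinear regression.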

T2 sequence (P48775 whole entry): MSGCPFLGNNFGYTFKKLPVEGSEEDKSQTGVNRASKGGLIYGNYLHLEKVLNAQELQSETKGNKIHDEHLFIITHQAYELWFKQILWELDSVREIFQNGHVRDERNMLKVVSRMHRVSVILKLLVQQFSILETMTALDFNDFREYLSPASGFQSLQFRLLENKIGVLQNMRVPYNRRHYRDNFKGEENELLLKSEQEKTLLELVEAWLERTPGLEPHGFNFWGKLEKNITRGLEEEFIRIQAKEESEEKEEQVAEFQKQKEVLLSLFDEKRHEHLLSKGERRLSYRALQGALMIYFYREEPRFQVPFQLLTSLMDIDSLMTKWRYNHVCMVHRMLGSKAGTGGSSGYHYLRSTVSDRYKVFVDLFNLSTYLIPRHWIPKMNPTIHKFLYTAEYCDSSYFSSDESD
T1 sequence (P14902 whole entry): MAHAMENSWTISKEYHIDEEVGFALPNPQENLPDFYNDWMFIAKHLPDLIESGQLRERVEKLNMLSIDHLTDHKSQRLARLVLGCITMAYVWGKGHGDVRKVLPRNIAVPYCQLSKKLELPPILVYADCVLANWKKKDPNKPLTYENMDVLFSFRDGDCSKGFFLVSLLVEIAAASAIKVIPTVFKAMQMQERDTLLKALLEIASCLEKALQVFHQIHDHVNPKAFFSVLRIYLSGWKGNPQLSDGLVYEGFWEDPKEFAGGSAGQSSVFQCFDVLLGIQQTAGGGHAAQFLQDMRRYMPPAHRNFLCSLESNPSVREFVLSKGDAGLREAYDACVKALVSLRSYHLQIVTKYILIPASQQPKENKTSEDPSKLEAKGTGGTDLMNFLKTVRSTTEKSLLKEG

One may read the IC50 as the midpoint of a concentration-inhibition curve. A lower IC50 goes with higher potency. Usually inhibition stands for the drop in the measured response relative to a control, in per cent. In the case of `CC1=C(c2ccccc2)C(CC(O)C2CCN(C(=O)NC3CCCCC3)CC2)n2cncc21` (centres unmarked) [Example 179], in assay [1], the IC50 was < 500 nM, the inhibition at 1 µM is ≥ 50% and the inhibition at 10 µM is ≥ 50%. Also, in assay [2], the inhibition at 1 µM was ≤ 50%.

As for `CC1=C(c2ccccc2)C(CC(O)C2CCN(C(=O)Cc3ccccc3)CC2)n2cncc21` (centres unmarked) [Example 180], in assay [1], the IC50 was < 500 nM, the inhibition at 1 µM is ≥ 50% and the inhibition at 10 µM is ≥ 50%. Besides, the inhibition at 1 µM in assay [2] is ≥ 50%.

In the case of `CC1=C(c2ccccc2)C(CC(O)C2CCN(C(=O)Nc3cccc(Cl)c3)CC2)n2cncc21` (centres unmarked) [Example 181], in assay [1], the IC50 is < 500 nM, the inhibition at 1 µM was ≥ 50% and the inhibition at 10 µM is ≥ 50%. For the same molecule, the inhibition at 1 µM in assay [2] was ≤ 50%.

For `CC1=C(c2ccccc2)C(CC(O)C2CCN(C(=O)Nc3ccc(F)c(Cl)c3)CC2)n2cncc21` (centres unmarked) [Example 182], in assay [1], the IC50 was < 500 nM, the inhibition at 1 µM is ≥ 50% and the inhibition at 10 µM is ≥ 50%. Moreover, the inhibition at 1 µM in assay [2] was ≤ 50%.

As for `CC1=C(c2ccccc2)C(CC(O)C2CCN(C(=O)Nc3cccc(C)n3)CC2)n2cncc21` (centres unmarked) [Example 183], in assay [1], the IC50 was < 500 nM, the inhibition at 1 µM was ≥ 50% and the inhibition at 10 µM is ≥ 50%. Further, the inhibition at 1 µM in assay [2] is ≤ 50%.

In the case of `CC1=C(c2ccccc2)C(CC(O)C2CCC(F)(F)CC2)n2cncc21` (centres unmarked) [Example 184], in assay [1], the IC50 was < 500 nM, the inhibition at 1 µM was ≥ 50% and the inhibition at 10 µM is ≥ 50%. Moreover, the inhibition at 1 µM in assay [2] was ≥ 50%.

`CC1=C(c2ccccc2)C(CC(O)C2CCC(c3ccccc3)CC2)n2cncc21` (centres unmarked) [Example 186]: in assay [1], the IC50 is < 500 nM, the inhibition at 1 µM was ≥ 50% and the inhibition at 10 µM is ≥ 50%. Also, in assay [2], the inhibition at 1 µM was ≤ 50%.

As for `CC1=C(c2ccccc2)C(CC(O)C2CCN(C(=O)C(C)C)CC2)n2cncc21` (centres unmarked) [Example 187], in assay [1], the IC50 is > 500 nM, the inhibition at 1 µM was ≥ 50% and the inhibition at 10 µM is ≥ 50%. The inhibition at 1 µM in assay [2] is ≤ 50%.

As for `CC1=C(c2ccccc2)C(CC(O)C2CCN(c3ccccn3)CC2)n2cncc21` (centres unmarked) [Example 188, 2-(7-methyl-6-phenyl-5H-pyrrolo[1,2-c]imidazol-5-yl)-1-(1-(pyridin-2-yl)piperidin-4-yl)ethan-1-ol], in assay [1], the inhibition at 1 µM was ≤ 50% and the inhibition at 10 µM is ≥ 50%. Further, in assay [2], the inhibition at 1 µM was ≤ 50%.
